In test [1] the test system is apomorphine-induced stereotypy in rats. As to the kind of experiment: Apomorphine-induced stereotypy in rats (APO). The class given is in vivo. The settings on record: Rattus norvegicus, n.d.: found not active at threshold dose 2.5 mg/kg or 10 mg/kg (a). As for the experimental part:
Apomorphine (1.0 mg/kg, i.v.)-induced stereotypy (compulsive sniffing, licking, chewing) was scored every 5 min over the first hour after injection of apomorphine, following a 1 hour interval pre-treatment with the test compound. The score system was: (3) pronounced, (2) moderate, (1) slight, and (0) absent.

The target in test [2] is T1, Rat recombinant PDE10A (rPDE10A2) (Rattus norvegicus, UniProt Q9QYJ6).
T1 construct: inferred from the Ni metal chelate purification; made in house; host or cells: Sf9 insect cells (baculovirus)
T1 sequence (Q9QYJ6 1-794): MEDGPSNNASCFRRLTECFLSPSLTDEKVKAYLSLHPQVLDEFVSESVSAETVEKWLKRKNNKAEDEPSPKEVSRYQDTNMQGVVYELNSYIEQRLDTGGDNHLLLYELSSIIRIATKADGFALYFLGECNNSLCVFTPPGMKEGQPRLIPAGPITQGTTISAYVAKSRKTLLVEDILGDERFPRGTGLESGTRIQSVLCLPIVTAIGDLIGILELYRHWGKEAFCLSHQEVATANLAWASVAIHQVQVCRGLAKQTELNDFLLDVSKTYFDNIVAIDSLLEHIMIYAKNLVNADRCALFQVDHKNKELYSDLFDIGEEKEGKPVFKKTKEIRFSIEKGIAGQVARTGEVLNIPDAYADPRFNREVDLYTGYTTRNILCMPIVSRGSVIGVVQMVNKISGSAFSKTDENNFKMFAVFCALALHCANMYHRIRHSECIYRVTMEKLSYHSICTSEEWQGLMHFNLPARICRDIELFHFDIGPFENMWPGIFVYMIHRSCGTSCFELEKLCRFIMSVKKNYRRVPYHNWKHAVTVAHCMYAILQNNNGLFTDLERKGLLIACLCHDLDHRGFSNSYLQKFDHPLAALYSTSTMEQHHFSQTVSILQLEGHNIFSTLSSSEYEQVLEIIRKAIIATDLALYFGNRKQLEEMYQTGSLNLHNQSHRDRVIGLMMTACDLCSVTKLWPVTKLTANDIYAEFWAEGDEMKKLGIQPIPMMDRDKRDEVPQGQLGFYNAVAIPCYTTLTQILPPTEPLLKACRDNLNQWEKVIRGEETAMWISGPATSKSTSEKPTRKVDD
As to the kind of experiment: In vitro assay PDE10A (SPA, 3H-cAMP). The test is classed as biochemical. The settings on record: pIC50 corresponds to the −log IC50 expressed in mol/L; read-out: PDE10A2 pIC50 (converted). As for the experimental part: Rat recombinant PDE10A (rPDE10A2) was expressed in Sf9 cells using a recombinant rPDE10A baculovirus construct. Cells were harvested after 48 h of infection and the rPDE10A protein was purified by metal chelate chromatography on Ni-sepharose 6FF. Tested compounds were dissolved and diluted in 100% DMSO to a concentration 100 fold of the final concentration in the assay. Compound dilutions (0.4 μl) were added in 384 well plates to 20 μl of incubation buffer (50 mM Tris pH 7.8, 8.3 mM MgCl2, 1.7 mM EGTA). 10 μl of rPDE10A enzyme in incubation buffer was added and the reaction was started by addition of 10 μl substrate to a final concentration of 60 nM cAMP and 0.008 μCi ^3H-cAMP. The reaction was incubated for 60 minutes at room temperature. […] After sedimentation of the beads during 30 minutes the radioactivity was measured in a Perkin Elmer Topcount scintillation counter and results were expressed as cpm. For blanc values the enzyme was omitted from the reaction and replaced by incubation buffer. Control values were obtained by addition of a final concentration of 1% DMSO instead of compound. The same assay principle is applied for the measurement of the affinity of the compound for other members of the PDE family with appropriate modifications in incubation buffer, substrate concentration, incubation time and stop solution.

The values below come from patent US20120220581A1, “IMIDAZO[1,2-b]PYRIDAZINE DERIVATIVES AND THEIR USE AS PDE10 INHIBITORS” (Janssen-Cilag, S.A., priority 2009, published 2012).

A value given as a limit tells only on which side of the number the result lay.

One may read the ED50 as the midpoint of the dose-response relation. High values mean a need for a large dose, low ones an effect at a small dose. In test [1] (not further tested), `COC(C)(C)Cc1ccc(-c2c(C)nc3c(N4CCOCC4)cc(C4CC4)nn23)cn1` [compound 43, 6-cyclopropyl-3-[6-(2-methoxy-2-methylpropyl)-3-pyridinyl]-2-methyl-8-(4-morpholinyl)-imidazo[1,2-b]pyridazine] yielded a 50% effective dose (ED50) greater than 2.5 mg/kg. For the same compound, in test [2], the IC50 is 0.191 µM.

On to `COCCOc1ccc(-c2c(C3CC3)nc3c(-c4ccncc4)ccnn23)cn1` [compound 44, 2-cyclopropyl-3-[6-(2-methoxyethoxy)-3-pyridinyl]-8-(4-pyridinyl)-imidazo[1,2-b]pyridazine], for which the 50% effective dose (ED50) in test [1] (not further tested) was greater than 2.5 mg/kg. Moreover, the IC50 in test [2] is 0.0457 µM.

`COC(C)(C)Cc1ccc(-c2c(C3CC3)nc3c(N4CCOCC4)ccnn23)cn1` [compound 45, 2-cyclopropyl-3-[6-(2-methoxy-2-methylpropyl)-3-pyridinyl]-8-(4-morpholinyl)-imidazo[1,2-b]pyridazine] displayed an ED50 in test [1] (not further tested) greater than 2.5 mg/kg. Also, the IC50 in test [2] is 0.0501 µM.

In test [1] (not further tested), `c1cc(-c2ccnn3c(-c4ccc(N5CCOCC5)nc4)c(C4CC4)nc23)ccn1` [compound 46, 2-cyclopropyl-3-[6-(4-morpholinyl)-3-pyridinyl]-8-(4-pyridinyl)-imidazo[1,2-b]pyridazine] yielded a median effective dose (ED50) greater than 2.5 mg/kg. Further, the IC50 in test [2] was 0.0174 µM.

Regarding `COC(C)(C)Cc1ccc(-c2c(C)nc3c(N4CCOCC4)cc(C)nn23)cn1` [compound 47, 3-[6-(2-methoxy-2-methylpropyl)-3-pyridinyl]-2,6-dimethyl-8-(4-morpholinyl)-imidazo[1,2-b]pyridazine], the 50% effective dose (ED50) in test [1] (not further tested) was greater than 2.5 mg/kg. For the same compound, the IC50 in test [2] was 0.0912 µM.

On to `COCCOc1ccc(-c2c(C)nc3c(-c4ccncc4)cc(C)nn23)cn1` [compound 49, 3-[6-(2-methoxyethoxy)-3-pyridinyl]-2,6-dimethyl-8-(4-pyridinyl)-imidazo[1,2-b]pyridazine], for which the median effective dose (ED50) in test [1] (not further tested) was greater than 2.5 mg/kg. For the same compound, the IC50 in test [2] was 0.209 µM.

As for `COC(C)(C)Cc1ccc(-c2cnc3c(N4CCOCC4)ccnn23)cn1` [compound 51, 3-[6-(2-methoxy-2-methylpropyl)-3-pyridinyl]-8-(4-morpholinyl)-imidazo[1,2-b]pyridazine], the median effective dose (ED50) in test [1] (not further tested) is greater than 2.5 mg/kg. Moreover, the IC50 in test [2] was 0.105 µM.

Consider `COCCOc1ccc(-c2cnc3c(N4CCOCC4)ccnn23)cn1` [compound 52, 3-[6-(2-methoxyethoxy)-3-pyridinyl]-8-(4-morpholinyl)-imidazo[1,2-b]pyridazine], for which the ED50 in test [1] (not further tested) was greater than 2.5 mg/kg. The IC50 in test [2] was 0.468 µM.

Turning to `COC(C)(C)Cc1ccc(-c2c(C3CC3)nc3c(N4CCOCC4)cc(C)nn23)cn1` [compound 53, 2-cyclopropyl-3-[6-(2-methoxy-2-methylpropyl)-3-pyridinyl]-6-methyl-8-(4-morpholinyl)-imidazo[1,2-b]pyridazine], the 50% effective dose (ED50) in test [1] (not further tested) was greater than 2.5 mg/kg. The IC50 in test [2] was 0.214 µM.

Regarding `COC(C)(C)Cc1ccc(-c2c(C3CC3)nc3c(-c4ccncc4)cc(C)nn23)cn1` [compound 55, 2-cyclopropyl-3-[6-(2-methoxy-2-methylpropyl)-3-pyridinyl]-6-methyl-8-(4-pyridinyl)-imidazo[1,2-b]pyridazine], in test [1] (not further tested), the median effective dose (ED50) is greater than 2.5 mg/kg. Besides, the IC50 in test [2] is 0.038 µM.

Compound `COCCc1ccc(-c2c(C3CC3)nc3c(-c4ccncc4)cc(C)nn23)cn1` [compound 56, 2-cyclopropyl-3-[6-(2-methoxyethyl)-3-pyridinyl]-6-methyl-8-(4-pyridinyl)-imidazo[1,2-b]pyridazine] gave an ED50 in test [1] (not further tested) greater than 2.5 mg/kg. For the same compound, the IC50 in test [2] was 0.0513 µM.

In test [1] (not further tested), `Cc1nc2c(-c3ccncc3)cc(C3CC3)nn2c1-c1ccc(N2CCOCC2)nc1` [compound 58, 6-cyclopropyl-2-methyl-3-[6-(4-morpholinyl)-3-pyridinyl]-8-(4-pyridinyl)-imidazo[1,2-b]pyridazine] gave an ED50 greater than 2.5 mg/kg. The IC50 in test [2] was 0.186 µM.

In test [1] (not further tested), `COCCOc1ccc(-c2c(C)nc3c(-c4ccncc4)cc(C4CC4)nn23)cn1` [compound 59, 6-cyclopropyl-3-[6-(2-methoxyethoxy)-3-pyridinyl]-2-methyl-8-(4-pyridinyl)-imidazo[1,2-b]pyridazine] came in with an ED50 greater than 2.5 mg/kg. Also, the IC50 in test [2] is 0.234 µM.

For `COC(C)(C)Cc1ccc(-c2cnc3c(-c4ccncc4)ccnn23)cn1` [compound 60, 3-[6-(2-methoxy-2-methylpropyl)-3-pyridinyl]-8-(4-pyridinyl)-imidazo[1,2-b]pyridazine], the ED50 in test [1] (not further tested) was greater than 2.5 mg/kg. In test [2], the IC50 was 0.191 µM.

In the case of `COCCc1ccc(-c2c(C)nc3c(N4CCOCC4)cc(C(F)(F)F)nn23)cn1` [compound 64, 3-[6-(2-methoxyethyl)-3-pyridinyl]-2-methyl-8-(4-morpholinyl)-6-(trifluoromethyl)-imidazo[1,2-b]pyridazine], the ED50 in test [1] (po, * not soluble, tested orally as a suspension) was greater than 2.5 mg/kg. Further, the IC50 in test [2] is 0.479 µM.

Turning to `COCCOc1ccc(-c2c(C)nc3c(N4CCOCC4)cc(C)nn23)cn1` [compound 69, 3-[6-(2-methoxyethoxy)-3-pyridinyl]-2,6-dimethyl-8-(4-morpholinyl)-imidazo[1,2-b]pyridazine], in test [1] (not further tested), the ED50 is greater than 2.5 mg/kg. Besides, the IC50 in test [2] is 0.324 µM.

Take `Cc1cc(-c2ccncc2)c2nc(C)c(-c3ccc(N4CCOCC4)nc3)n2n1` [compound 70, 2,6-dimethyl-3-[6-(4-morpholinyl)-3-pyridinyl]-8-(4-pyridinyl)-imidazo[1,2-b]pyridazine]: in test [1] (not further tested), the median effective dose (ED50) is greater than 2.5 mg/kg. Also, in test [2], the IC50 is 0.126 µM.

For `COCCOc1ccc(-c2c(C3CC3)nc3c(N4CCOCC4)ccnn23)cn1` [compound 73, 2-cyclopropyl-3-[6-(2-methoxyethoxy)-3-pyridinyl]-8-(4-morpholinyl)-imidazo[1,2-b]pyridazine], the ED50 in test [1] (not further tested) is greater than 2.5 mg/kg. For the same compound, in test [2], the IC50 was 0.0977 µM.

In the case of `Cc1nc2c(N3CCOCC3)ccnn2c1-c1ccc(CCOC(C)C)nc1` [compound 76, 2-methyl-3-[6-[2-(1-methylethoxy)ethyl]-3-pyridinyl]-8-(4-morpholinyl)-imidazo[1,2-b]pyridazine], in test [1] (not further tested), the 50% effective dose (ED50) was greater than 2.5 mg/kg. Further, the IC50 in test [2] was 0.0501 µM.

`Cc1nc2c(N3CCOCC3)ccnn2c1-c1ccc(CCN2CCCC2)nc1` [compound 77, 2-methyl-8-(4-morpholinyl)-3-[6-[2-(1-pyrrolidinyl)ethyl]-3-pyridinyl]-imidazo[1,2-b]pyridazine] returned an ED50 in test [1] (not further tested) greater than 2.5 mg/kg. Also, the IC50 in test [2] is 0.129 µM.

In test [1] (not further tested), `Cc1nc2c(N3CCOCC3)cc(C3CC3)nn2c1-c1ccc(C2CCOCC2)nc1` [compound 78, 6-cyclopropyl-2-methyl-8-(4-morpholinyl)-3-[6-(tetrahydro-2H-pyran-4-yl)-3-pyridinyl]-imidazo[1,2-b]pyridazine] showed a 50% effective dose (ED50) greater than 2.5 mg/kg. In addition, the IC50 in test [2] is 0.123 µM.

Turning to `Cc1cc(N2CCOCC2)c2nc(C3CC3)c(-c3ccc(C4CCOCC4)nc3)n2n1` [compound 79, 2-cyclopropyl-6-methyl-8-(4-morpholinyl)-3-[6-(tetrahydro-2H-pyran-4-yl)-3-pyridinyl]-imidazo[1,2-b]pyridazine], in test [1] (not further tested), the ED50 was greater than 2.5 mg/kg. Moreover, the IC50 in test [2] was 0.263 µM.

Consider `Cc1cc(-c2ccncc2)c2nc(C3CC3)c(-c3ccc(C4CCOCC4)nc3)n2n1` [compound 80, 2-cyclopropyl-6-methyl-8-(4-pyridinyl)-3-[6-(tetrahydro-2H-pyran-4-yl)-3-pyridinyl]-imidazo[1,2-b]pyridazine], for which the median effective dose (ED50) in test [1] (not further tested) is greater than 2.5 mg/kg. In addition, the IC50 in test [2] was 0.0447 µM.
